Some test systems named below: 786-0 renal; HOP-62 NSCLC; M14 melanoma; MDA-N; NCI-H23 lung; RPMI-8226 leukemia; RXF 393 renal; SK-MEL-2 melanoma; UACC-257 melanoma; MALME-3M melanoma.
Assay in all cases: NCI tumour cell line growth inhibition, 48 h

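Briefly, cells in 96-well plates were exposed to five compound concentrations for 48 h, and endpoints were estimated by linear interpolation. At the TGI there is no net growth.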 Some results are limits rather than exact numbers.

With `C1CNCCNCCN1`, the TGI in the test on 786-0 renal, in the test on HOP-62 NSCLC, in the test on M14 melanoma, in the test on MDA-N, with NCI-H23 lung and in the test with RPMI-8226 leukemia was above 100 µM in each case. For the same compound, the TGI in the test with RXF 393 renal, in the test with SK-MEL-2 melanoma and in the test on UACC-257 melanoma was above 100 µM in each case.
With `COC(=O)C1=C2SCc3cccc(c3)CSC3=C(C(=O)OC)SC(=C(S2)S1)S3`, the TGI in the test on 786-0 renal, in the test on HOP-62 NSCLC, in the test on M14 melanoma, in the test with MDA-N, with RPMI-8226 leukemia and with RXF 393 renal was above 100 µM each time. In addition, the TGI with SK-MEL-2 melanoma and with UACC-257 melanoma was above 100 µM in each case.
`CCN1C(=O)C(=C/C=C/c2ccc([N+](=O)[O-])cc2)C(=O)N(CC)C1=S`: the TGI in the test on 786-0 renal is 34.3 µM; in the test on HOP-62 NSCLC, 39.2 µM; with M14 melanoma, above 100 µM; with MDA-N, 67 µM; with NCI-H23 lung, 32.8 µM; in the test with RPMI-8226 leukemia it was 95.8 µM. Besides, the figures for the TGI with RXF 393 renal, in the test on SK-MEL-2 melanoma and with UACC-257 melanoma were 33.1 µM, 65.3 µM and 32.2 µM, respectively.
On to `O=C(Cc1ccccc1)NN1C(=O)/C(=C\c2cccc(O)c2)SC1=Nc1ccccc1`, for which the TGI in the test with 786-0 renal, with HOP-62 NSCLC, in the test on M14 melanoma, in the test with MDA-N, in the test with NCI-H23 lung and in the test with RXF 393 renal was above 100 µM in each case. Also, the TGI with SK-MEL-2 melanoma and in the test with UACC-257 melanoma was above 100 µM in each case.
As to `O=C1NC(N/N=C/C(O)C(O)C(O)CO)=N/C1=C\c1ccco1` (stereo unspecified), the TGI in the test on 786-0 renal, in the test on HOP-62 NSCLC, in the test with M14 melanoma, in the test with MALME-3M melanoma, with MDA-N and in the test on NCI-H23 lung was above 100 µM in each case. The TGI with RPMI-8226 leukemia, with RXF 393 renal and in the test on UACC-257 melanoma was above 100 µM throughout.
`Cc1cn(C(Cc2ccccc2)OCCO)c(=O)[nH]c1=O` (stereo unspecified): the TGI in the test on 786-0 renal, in the test on HOP-62 NSCLC, in the test on M14 melanoma, in the test on MDA-N, with NCI-H23 lung and in the test with RPMI-8226 leukemia was above 100 µM each time. Further, the TGI with RXF 393 renal, in the test on SK-MEL-2 melanoma and in the test with UACC-257 melanoma was above 100 µM each time.
Regarding `O=C(OCC1OC2OC(c3ccccc3)(n3ccc4c([N+](=O)[O-])ccnc43)OC2C1OC(=O)c1ccccc1)c1ccccc1` (stereo unspecified), the TGI in the test on 786-0 renal, in the test with HOP-62 NSCLC, in the test with M14 melanoma, with MALME-3M melanoma, in the test on MDA-N and in the test on NCI-H23 lung was above 100 µM throughout. The TGI in the test with RPMI-8226 leukemia, in the test with SK-MEL-2 melanoma and with UACC-257 melanoma was above 100 µM each time.
`C[C@H](N)C(=O)Nc1ccc(-c2nc3ccccc3s2)cc1`: the TGI was 29.1 µM with 786-0 renal; 72.9 µM in the test on HOP-62 NSCLC; 24.1 µM in the test on M14 melanoma; 39.5 µM in the test on MALME-3M melanoma; 38.4 µM in the test with MDA-N; above 100 µM in the test on NCI-H23 lung. The TGI was above 100 µM with RXF 393 renal, 99.4 µM in the test on SK-MEL-2 melanoma and above 100 µM in the test with UACC-257 melanoma.
On to `COC(=O)[C@@H]1CCCN1CCN1CCC[C@H]1C(=O)OC`, for which the TGI in the test with 786-0 renal, with HOP-62 NSCLC, with M14 melanoma, in the test with MALME-3M melanoma, in the test with MDA-N and with NCI-H23 lung was above 100 µM each time. Besides, the TGI in the test with RPMI-8226 leukemia, in the test with RXF 393 renal and with SK-MEL-2 melanoma was above 100 µM in each case.
Turning to `CCOC(=O)/C1=C(\C)N(c2ccc(C)cc2)C(=O)c2ccccc2C(=O)c2c(OC(C)=O)ccc(OC(C)=O)c21`, the TGI with 786-0 renal was above 100 µM; with HOP-62 NSCLC it was 87.3 µM; in the test with M14 melanoma it was 54.3 µM; in the test with MALME-3M melanoma it was 72.6 µM; in the test on NCI-H23 lung it was 71.1 µM; with RPMI-8226 leukemia, 30.3 µM. Moreover, the TGI stood at 92.9 µM in the test on RXF 393 renal, 82.7 µM with SK-MEL-2 melanoma and 80.7 µM in the test on UACC-257 melanoma.
Regarding `O=C(O)CC[N+]1=CCC(c2ccccc2)(c2ccccc2)O1`, the TGI in the test with 786-0 renal, in the test with HOP-62 NSCLC, in the test with M14 melanoma, in the test on MDA-N, with NCI-H23 lung and in the test on RXF 393 renal was above 100 µM throughout. Besides, the TGI in the test on SK-MEL-2 melanoma and in the test with UACC-257 melanoma was above 100 µM throughout.
For the compound `CN(C)Cc1cc(C(=O)/C=C/c2ccccc2Cl)cc(CN(C)C)c1O`, the TGI came out at 21.4 µM in the test on 786-0 renal; 26.2 µM in the test with HOP-62 NSCLC; 23.3 µM in the test with M14 melanoma; 23.5 µM with MALME-3M melanoma; 34.1 µM in the test on MDA-N; 35 µM in the test with NCI-H23 lung. Besides, the figures for the TGI with RPMI-8226 leukemia, in the test with RXF 393 renal and with UACC-257 melanoma were 56.5 µM, 41.7 µM and 30.1 µM, respectively.
Regarding `CCOC(=O)c1ccc(N2C(=S)N(C(=O)c3ccccc3)C(=Nc3ccccc3)C2=Nc2ccccc2)cc1`, the TGI in the test on 786-0 renal, in the test on HOP-62 NSCLC, in the test on M14 melanoma, in the test with MALME-3M melanoma, in the test with MDA-N and in the test on NCI-H23 lung was above 100 µM throughout. The TGI with RPMI-8226 leukemia, with SK-MEL-2 melanoma and in the test on UACC-257 melanoma was above 100 µM each time.
In the case of `NP(=O)(OCC1=CC(=O)c2ccccc2C1=O)N(CCBr)CCBr` (stereo unspecified), the TGI was 28.6 µM with 786-0 renal; 4.6 µM in the test on MALME-3M melanoma; 3.66 µM with MDA-N; 14.2 µM in the test on NCI-H23 lung; above 67.3 µM in the test with RPMI-8226 leukemia; 21.8 µM in the test on RXF 393 renal. The values for the TGI in the test on SK-MEL-2 melanoma and in the test with UACC-257 melanoma were 25.3 µM and 4.21 µM, respectively.
For `O=c1nc2c(c(-c3ccccc3Cl)[nH]1)COC/C2=C\c1ccccc1Cl`, the TGI in the test with 786-0 renal, in the test with HOP-62 NSCLC, in the test with M14 melanoma, in the test on MDA-N, in the test on NCI-H23 lung and with RPMI-8226 leukemia was above 100 µM throughout. Also, the TGI in the test on RXF 393 renal, with SK-MEL-2 melanoma and in the test with UACC-257 melanoma was above 100 µM in each case.
